Measured values from patent US9616065B2, “Compositions useful in treating brain-related diseases or disorders and methods using same” (priority 2013, dated 2017).
Read-outs that look alike come from different tables or passages of the source.

Assays:
SmDAT = SmDAT (Schistosoma mansoni, UniProt E9LD23); test: Transport inhibition constants, SmDAT; type: cell-based
SmSERT = SmSERT (Schistosoma mansoni, UniProt Q3I1M7); test: Transport inhibition constants, SmSERT; type: cell-based
wild-type human SERT = wild-type human SERT (Homo sapiens, UniProt P31645); test: Amphetamine-elicited efflux, wild-type human SERT; type: cell-based; design: The templates were full-length and nontagged human SERT in pcdna3.1; expressed in transfected cells; host or cells: COS-7, HEK293 or MDCK (uptake); COS-7 (efflux); conditions: 1 μM amphetamine
Method: (§1) COS-7 cells were maintained under the same conditions as above. Efflux experiments were performed 2 days after cell transfection with hSERT or empty vector and plating of the cells in 24-well plates. Cells were washed with room temperature PBS-CM and then loaded with 50 nM [^3H]-serotonin for 1 h. After preloading, cells were washed twice with buffer and then incubated for 10 min with or without substrates at room temperature. After incubation, the supernatant was collected, liquid scintillation fluid added, and the samples counted (Beckman LS-6500 Multi-purpose Scintillation Counter; Beckman Coulter, Brea, Calif.). The cells were solubilized in a solution of 0.1% sodium dodecyl sulfate and 0.1 M NaOH; liquid scintillation fluid was added and tubes were counted as above. All assays were done in quadruplicate.
(§2) The percentage of [^3H]-serotonin efflux among different treatments was calculated by adding counts of supernatant plus cell lysis, with the supernatant counts then divided by the total and multiplied by 100 to yield the percentage of efflux.
(§3) To investigate the role of central domains formed by TMD1 and 6 within SERT, chimeras were produced between the human and parasite SERT and TMD1 and 2 or 6 and 7, respectively, were replaced in the human SERT with their parasite counterparts. […]

[1] = target: T1, human SERT amino acid 328 mutant (D328C) (Homo sapiens, UniProt P31645, D328C); test: Amphetamine-elicited efflux, human SERT amino acid 328 mutant; type: cell-based; conditions: 1 μM amphetamine
T1 construct: The templates were full-length and nontagged human SERT in pcdna3.1; expressed in transfected cells; host or cells: COS-7
Method: as §1, §2, §3

mSERT mutant YETQ-L563V [2] = test: Substrate-elicited efflux, mSERT mutant YETQ-L563V; type: cell-based, mouse; conditions: up to highest testable concentration
Method: Efflux is terminated by collecting the supernatant. Both cells and supernatant are counted by liquid scintillation counting. Efflux is calculated as ratio of supernatant over supernatant and cells.

[3] = target: T2, human SERT amino acid 112 mutant (N112C) (Homo sapiens, UniProt P31645, N112C); test: Amphetamine-elicited efflux, human SERT amino acid 112 mutant; type: cell-based; conditions: 1 μM amphetamine
T2 construct: The templates were full-length and nontagged human SERT in pcdna3.1; expressed in transfected cells; host or cells: COS-7
Method: as §1, §2, §3

NET = target: T3, NET (Homo sapiens, UniProt P23975); test: NET interaction with amphetamine in presence of modulator; type: cell-based
T3 construct: expressed in transfected cells
T3 sequence (P23975 whole entry): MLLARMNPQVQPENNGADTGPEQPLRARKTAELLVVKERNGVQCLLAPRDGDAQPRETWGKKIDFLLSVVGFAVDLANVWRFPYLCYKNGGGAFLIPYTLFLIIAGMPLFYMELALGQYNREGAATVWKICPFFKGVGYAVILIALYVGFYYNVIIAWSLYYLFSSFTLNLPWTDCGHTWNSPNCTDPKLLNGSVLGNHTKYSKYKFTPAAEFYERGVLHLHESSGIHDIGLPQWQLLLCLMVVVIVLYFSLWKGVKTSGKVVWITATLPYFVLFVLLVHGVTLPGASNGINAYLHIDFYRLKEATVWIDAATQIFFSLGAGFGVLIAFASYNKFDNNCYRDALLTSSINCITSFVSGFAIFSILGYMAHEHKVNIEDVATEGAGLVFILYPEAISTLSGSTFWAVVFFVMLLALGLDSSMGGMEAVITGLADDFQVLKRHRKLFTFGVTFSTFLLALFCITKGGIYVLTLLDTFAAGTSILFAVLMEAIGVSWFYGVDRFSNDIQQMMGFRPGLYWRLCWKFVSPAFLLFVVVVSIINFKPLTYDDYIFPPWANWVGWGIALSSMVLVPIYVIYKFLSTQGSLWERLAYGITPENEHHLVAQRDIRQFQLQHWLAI
Method: Mutants are functionally tested in transfected COS-7 cells. Based on the success of the approach that identified the A1 site, the critical residues identified elsewhere herein are tested for changes in uptake kinetics and amphetamine-mediated efflux. Following this initial screen, residues displaying altered activity are tested further in uptake inhibition and ligand displacement assays. For uptake, cells are washed with PBSCM (phosphate-buffered saline with 1 mM MgCl, 0.1 mM CaCl2, 100 μM ascorbic acid, 10 μM clorgyline, 100 μM pargyline, and 10 μM RO 41-0960). To initiate uptake, cells are incubated for 10 min at 25° C. with various concentrations of radiolabeled monoamine. Following uptake, cells are washed and radioactivity is counted using liquid scintillation counting. […] Apparent Km and Vmax are determined using nonlinear regression analysis. The interaction of WT and mutant MAT with psychostimulants and transporter inhibitors is assessed using uptake inhibition assays. Cells are transfected as described elsewhere herein, but before uptake is initiated the cells are preincubated with various concentrations of ligand for 10 min. Uptake is initiated and performed as described elsewhere herein.

SERT = target: T4, SERT (Homo sapiens, UniProt P31645); test: [3H]-serotonin uptake after preincubation with modulator; type: cell-based
T4 construct: The templates were full-length and nontagged human SERT in pcdna3.1; expressed in transfected cells; host or cells: COS-7, HEK293 or MDCK (uptake); COS-7 (efflux)
Method: COS-7, HEK293, and MDCK cells were maintained in Dulbecco modified Eagle medium (3.5 g/l glucose) supplemented with FBS (10% each) at 37° C. with 5% CO2. Uptake experiments were performed 2 days after transfecting DNAs (hSERT, human dopamine transporter [hDAT], chimeras or mutants, or empty vector for background) with TransIT-LT1 (Minis Bio LLC, Madison, Wis., USA) transfection reagent and plating the cells in 24- or 96-well plates.
The uptake was allowed to continue for 10 min at room temperature and was terminated by washing with PBS-CM. […] Vmax and KM are given as mean±S.D. of three independent experiments. […] EC50 values are given as mean±S.E.M. of at least five independent experiments. Statistical significance between vehicle and drug treatments was assessed using Student t-test or one-way analysis of variance (ANOVA) Dunnett's multiple-comparison test (p<0.05).

mSERT mutant YETQ-L563V [4] = test: Serotonin uptake kinetics, mSERT mutant YETQ-L563V; type: cell-based, mouse; conditions: read-out: apparent affinity (Km)
[5] = substrate: NCCc1c[nH]c2ccc(O)cc12; test: cells, lysate or membranes; conditions: other: WT mSERT
[6] = read-out: Ki transport inhibition SmDAT

Sequence of SmDAT (E9LD23 1-727): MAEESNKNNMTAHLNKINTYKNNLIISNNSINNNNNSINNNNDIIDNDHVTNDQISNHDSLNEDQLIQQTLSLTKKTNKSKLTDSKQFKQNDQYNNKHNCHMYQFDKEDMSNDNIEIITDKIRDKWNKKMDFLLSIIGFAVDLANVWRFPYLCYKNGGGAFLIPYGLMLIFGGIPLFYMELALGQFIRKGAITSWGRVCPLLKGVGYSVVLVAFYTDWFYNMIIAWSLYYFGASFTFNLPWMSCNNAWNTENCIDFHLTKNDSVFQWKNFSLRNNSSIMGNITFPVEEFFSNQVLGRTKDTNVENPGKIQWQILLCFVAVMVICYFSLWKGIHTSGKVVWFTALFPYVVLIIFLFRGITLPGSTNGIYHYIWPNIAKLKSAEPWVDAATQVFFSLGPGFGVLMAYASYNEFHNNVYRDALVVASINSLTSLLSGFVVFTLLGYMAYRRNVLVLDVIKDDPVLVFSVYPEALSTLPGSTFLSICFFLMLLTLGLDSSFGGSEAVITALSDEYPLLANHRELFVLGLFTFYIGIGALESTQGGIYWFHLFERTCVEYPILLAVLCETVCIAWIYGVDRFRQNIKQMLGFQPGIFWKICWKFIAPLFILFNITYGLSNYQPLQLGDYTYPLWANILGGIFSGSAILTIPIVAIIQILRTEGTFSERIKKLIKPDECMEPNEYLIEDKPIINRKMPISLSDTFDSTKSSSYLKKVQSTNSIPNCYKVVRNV
Sequence of SmSERT (Q3I1M7 entry or part of it): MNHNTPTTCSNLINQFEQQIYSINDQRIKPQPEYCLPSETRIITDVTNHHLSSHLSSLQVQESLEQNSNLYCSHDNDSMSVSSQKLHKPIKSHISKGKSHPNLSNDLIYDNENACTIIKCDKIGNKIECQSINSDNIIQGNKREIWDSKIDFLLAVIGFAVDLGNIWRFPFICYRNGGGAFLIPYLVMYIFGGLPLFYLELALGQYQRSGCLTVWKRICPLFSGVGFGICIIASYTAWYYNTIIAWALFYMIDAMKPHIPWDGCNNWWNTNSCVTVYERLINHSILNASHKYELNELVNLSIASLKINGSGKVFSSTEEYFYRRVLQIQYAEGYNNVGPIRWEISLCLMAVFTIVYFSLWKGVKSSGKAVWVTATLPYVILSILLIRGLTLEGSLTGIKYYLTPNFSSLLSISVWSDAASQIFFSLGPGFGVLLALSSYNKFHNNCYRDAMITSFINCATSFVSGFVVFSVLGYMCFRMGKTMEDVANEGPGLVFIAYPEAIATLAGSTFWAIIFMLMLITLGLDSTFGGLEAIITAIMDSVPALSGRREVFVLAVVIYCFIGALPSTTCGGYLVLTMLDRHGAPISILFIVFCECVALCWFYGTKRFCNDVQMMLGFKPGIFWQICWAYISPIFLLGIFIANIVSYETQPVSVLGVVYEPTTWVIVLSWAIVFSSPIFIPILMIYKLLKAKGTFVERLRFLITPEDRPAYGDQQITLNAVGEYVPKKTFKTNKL

`CC(NC(C)(C)C)C(=O)c1cccc(Cl)c1` (stereo not shown) [Bupropion] was tested, and the Ki (SmDAT; [6]) was 242 ± 36 µM.

With `COC(=O)[C@H]1[C@@H](OC(=O)c2ccccc2)C[C@@H]2CC[C@H]1N2C` [Cocaine] the Ki (SmDAT; [6]) was 29.4 ± 3.6 µM and the Ki (SmSERT) was 35.4 ± 7.6 µM.

`CC(N)Cc1ccccc1` (stereo not shown) [Amphetamine] was tested, and the amphetamine-elicited efflux (wild-type human SERT) was “substantial efflux”, the amphetamine-elicited efflux [1] was “no significant amphetamine-elicited efflux” and the “reversal of transport (efflux)” value (mSERT mutant YETQ-L563V [2]) was “did not elicit any significant reversal of transport”. The Ki (SmDAT) was 10 ± 0.5 µM, the amphetamine-elicited efflux [3] was “no significant amphetamine-elicited efflux” and the Ki (SmSERT) was 393 ± 26 µM.

Molecule `CN(C)CCCC1(c2ccc(F)cc2)OCc2cc(C#N)ccc21` (stereo not shown) [Citalopram] has a Ki (SmDAT; [6]) of 50.5 ± 4.7 µM.

For `COc1cc(C(C(=O)NCCC(C)C)N(CCCO)C(=O)c2snc(C(N)=O)c2N)ccc1O` (stereo not shown) [ATM2, 4-amino-N^5-{1-(4-hydroxy-3-methoxyphenyl)-2-[(3-methylbutyl)amino]-2-oxoethyl}-N^5-(3-hydroxypropyl)-1,2-thiazole-3,5-dicarboxamide], the “effect on affinity of amphetamine for NET” value (NET) was “affinity for amphetamine was enhanced”, the “effect on SERT uptake activity / specificity” value (SERT) was “higher activity towards SERT” and the “shape of concentration response on transporter uptake” value (SERT) was “biphasic mode of action, enhancing transporter activity at low concentrations and inhibiting transporter function at higher concentrations”.

`NCCc1c[nH]c2ccc(O)cc12` [serotonin] showed a Km (mSERT mutant YETQ-L563V [4]) of 4.7 ± 1.3 µM.

Work on `CN(C)CCCN1c2ccccc2CCc2ccccc21` [Imipramine] yielded a Ki (SmSERT) of 0.3 ± 0.1 µM.

B1: WT mSERT (Mus musculus) (protein)
chain: METTPLNSQKVLSECKDKEDCQENGVLQKGVPTPADKAGPGQISNGYSAVPSTSAGDEAPHSTPAATTTLVAEIHQGERETWGKKMDFLLSVIGYAVDLGNIWRFPYICYQNGGGAFLLPYTIMAIFGGIPLFYMELALGQYHRNGCISIWKKICPIFKGIGYAICIIAFYIASYYNTIIAWALYYLISSFTDQLPWTSCKNSWNTGNCTNYFAQDNITWTLHSTSPAEEFYLRHVLQIHQSKGLQDLGTISWQLALCIMLIFTIIYFSIWKGVKTSGKVVWVTATFPYIVLSVLLVRGATLPGAWRGVVFYLKPNWQKLLETGVWVDAAAQIFFSLGPGFGVLLAFASYNKFNNNCYQDALVTSVVNCMTSFVSGFVIFTVLGYMAEMRNEDVSEVAKDAGPSLLFITYAEAIANMPASTFFAIIFFLMLITLGLDSTFAGLEGVITAVLDEFPHIWAKRREWFVLIVVITCILGSLLTLTSGGAYVVTLLEEYATGPAVLTVALIEAVVVSWFYGITQFCSDVKEMLGFSPGWFWRICWVAISPLFLLFIICSFLMSPPQLRLFQYNYPHWSIILGYCIGTSSVICIPIYIIYRLISTPGTLKERIIKSITPETPTEIPCGDIRMNAV
B1 gave a Km [5] of 3.4 ± 0.7 µM.
